Assay results: publication PMC8252049 (Chemmedchem, 2021)

What was measured:
[1] = target: T1, rat liver TrxR1 (cytosolic thioredoxin reductase) (Rattus norvegicus, UniProt O89049); assay: DTNB reduction, absorbance […] nm; type: biochemical
T1 sequence (O89049 1-499): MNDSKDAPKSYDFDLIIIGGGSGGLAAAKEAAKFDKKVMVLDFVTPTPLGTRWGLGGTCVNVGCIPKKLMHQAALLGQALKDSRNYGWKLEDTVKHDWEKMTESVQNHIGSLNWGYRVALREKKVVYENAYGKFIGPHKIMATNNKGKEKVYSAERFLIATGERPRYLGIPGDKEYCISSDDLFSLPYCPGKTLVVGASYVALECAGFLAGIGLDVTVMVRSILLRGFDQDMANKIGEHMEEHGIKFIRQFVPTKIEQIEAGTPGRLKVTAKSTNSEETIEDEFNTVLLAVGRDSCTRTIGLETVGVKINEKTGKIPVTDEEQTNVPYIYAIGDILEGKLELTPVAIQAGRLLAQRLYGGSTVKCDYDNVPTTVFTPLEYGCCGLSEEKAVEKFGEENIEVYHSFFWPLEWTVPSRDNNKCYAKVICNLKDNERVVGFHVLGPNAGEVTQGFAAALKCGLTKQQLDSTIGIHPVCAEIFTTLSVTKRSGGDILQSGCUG

[2] = target: rat liver TrxR2 (mitochondrial thioredoxin reductase) (Rattus norvegicus, UniProt Q9Z0J5); assay: DTNB reduction, absorbance […] nm; type: biochemical
Sequence of rat liver TrxR2 (mitochondrial thioredoxin reductase) (Q9Z0J5 37-526): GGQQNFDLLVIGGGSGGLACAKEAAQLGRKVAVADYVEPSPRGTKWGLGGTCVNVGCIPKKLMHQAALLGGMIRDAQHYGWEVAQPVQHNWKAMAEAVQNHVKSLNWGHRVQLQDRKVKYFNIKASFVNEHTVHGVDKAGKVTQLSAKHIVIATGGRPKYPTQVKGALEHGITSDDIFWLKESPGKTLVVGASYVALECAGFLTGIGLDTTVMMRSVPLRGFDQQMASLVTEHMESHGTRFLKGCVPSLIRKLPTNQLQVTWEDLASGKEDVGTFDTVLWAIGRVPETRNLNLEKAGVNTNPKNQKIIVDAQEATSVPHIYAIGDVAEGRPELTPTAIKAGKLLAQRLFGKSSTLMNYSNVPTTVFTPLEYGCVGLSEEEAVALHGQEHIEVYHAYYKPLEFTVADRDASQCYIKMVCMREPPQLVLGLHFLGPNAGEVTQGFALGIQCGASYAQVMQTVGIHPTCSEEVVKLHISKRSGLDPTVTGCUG

| Compound | IC50 [1] [nM] | IC50 [2] [nM] |
| --- | --- | --- |
| trans-[PtBr2(NHBz2)(PPh3)] [compound 2] | 2.59 | – |
| trans-[PtBr2(NHBzBu)(PPh3)] [compound 1] | 2.27 | – |
| [NH2][Pt]([NH2])([Cl])[Cl] [cisplatin] | 22.5 | 405 |
